Bounds are passed on as bounds.

What all share (assay type): cell-based
Assay [1] concerns the target T1, human TLR9 (Homo sapiens, UniProt Q9NR96).
T1 construct: host or cells: HEK-Blue cells
T1 sequence (Q9NR96 26-1032): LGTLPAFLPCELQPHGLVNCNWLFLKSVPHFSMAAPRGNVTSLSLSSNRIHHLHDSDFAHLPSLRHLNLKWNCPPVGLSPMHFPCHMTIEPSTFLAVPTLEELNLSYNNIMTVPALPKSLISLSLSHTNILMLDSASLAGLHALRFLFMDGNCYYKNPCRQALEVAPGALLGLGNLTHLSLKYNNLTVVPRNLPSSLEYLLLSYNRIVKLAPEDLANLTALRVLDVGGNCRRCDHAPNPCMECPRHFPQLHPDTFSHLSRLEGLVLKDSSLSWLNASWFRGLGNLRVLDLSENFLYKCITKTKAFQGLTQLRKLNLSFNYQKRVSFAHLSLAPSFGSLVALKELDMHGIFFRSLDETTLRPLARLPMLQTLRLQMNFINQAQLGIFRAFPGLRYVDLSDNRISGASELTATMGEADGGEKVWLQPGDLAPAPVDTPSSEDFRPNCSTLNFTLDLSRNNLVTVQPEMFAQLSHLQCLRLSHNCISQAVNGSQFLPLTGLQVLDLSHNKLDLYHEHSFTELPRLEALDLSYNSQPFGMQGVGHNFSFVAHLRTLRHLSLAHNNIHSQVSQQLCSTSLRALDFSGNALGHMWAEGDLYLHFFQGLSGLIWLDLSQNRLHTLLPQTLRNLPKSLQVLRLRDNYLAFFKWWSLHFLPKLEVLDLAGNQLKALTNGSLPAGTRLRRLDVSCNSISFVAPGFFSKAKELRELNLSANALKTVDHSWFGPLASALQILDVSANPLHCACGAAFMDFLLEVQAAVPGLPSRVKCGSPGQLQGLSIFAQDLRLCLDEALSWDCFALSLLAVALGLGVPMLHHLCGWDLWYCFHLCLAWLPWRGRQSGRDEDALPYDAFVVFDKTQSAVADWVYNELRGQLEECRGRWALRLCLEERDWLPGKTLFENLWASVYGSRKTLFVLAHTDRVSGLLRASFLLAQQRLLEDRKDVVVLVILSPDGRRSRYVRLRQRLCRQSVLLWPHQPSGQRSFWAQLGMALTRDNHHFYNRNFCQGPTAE
Description: TLR9 inhibition reporter assay (HEK-Blue, SEAP). As to conditions: HEK-Blue cells overexpressing human TLR9, ligand ODN2006 200 nM, 22 hour incubation. The procedure:
(§1) TLR7/8/9 Inhibition Reporter Assays
(§2) HEK-Blue™-cells (Invivogen) overexpressing human TLR7. TLR8 or TLR9 receptors were used for screening inhibitors of these receptors using an inducible SEAP (secreted embryonic alkaline phosphatase) reporter gene under the control of the IFN-β minimal promoter fused to five NF-κB and AP-1-binding sites. Cells are seeded into Greiner 384 well plates (15000 cells per well) that are pre dispensed (by ECHO) with testing compounds in DMSO to yield a final dose response concentration range of 0.85 nM-50 μM. After a 60 minute compound pre-treatment in 37 degree incubator, the cells are then stimulated with a TLR7 ligand (gardiquimod at a final concentration of 2.5 μM), TLR8 ligand (R848 at a final concentration of 14.25 μM) or TLR9 ligand (ODN2006 at a final concentration of 200 nM) to activate NF-κB and AP-1 which induce the production of SEAP. After a 22 hour incubation at 37° C., 5% CO2, SEAP levels are determined with the addition of HEK-Blue™ Detection reagent (Invivogen), a cell culture medium that allows for detection of SEAP, according to manufacturer's specifications. The percent inhibition is determined as the % reduction in the HEK-Blue signal present in […].
In general terms: Reporter assays use an easily measured gene product as a stand-in for the process of interest.

Assay [2] addresses T2, human TLR7 (Homo sapiens, UniProt Q9NYK1).
T2 construct: host or cells: HEK-Blue cells
T2 sequence (Q9NYK1 27-1049): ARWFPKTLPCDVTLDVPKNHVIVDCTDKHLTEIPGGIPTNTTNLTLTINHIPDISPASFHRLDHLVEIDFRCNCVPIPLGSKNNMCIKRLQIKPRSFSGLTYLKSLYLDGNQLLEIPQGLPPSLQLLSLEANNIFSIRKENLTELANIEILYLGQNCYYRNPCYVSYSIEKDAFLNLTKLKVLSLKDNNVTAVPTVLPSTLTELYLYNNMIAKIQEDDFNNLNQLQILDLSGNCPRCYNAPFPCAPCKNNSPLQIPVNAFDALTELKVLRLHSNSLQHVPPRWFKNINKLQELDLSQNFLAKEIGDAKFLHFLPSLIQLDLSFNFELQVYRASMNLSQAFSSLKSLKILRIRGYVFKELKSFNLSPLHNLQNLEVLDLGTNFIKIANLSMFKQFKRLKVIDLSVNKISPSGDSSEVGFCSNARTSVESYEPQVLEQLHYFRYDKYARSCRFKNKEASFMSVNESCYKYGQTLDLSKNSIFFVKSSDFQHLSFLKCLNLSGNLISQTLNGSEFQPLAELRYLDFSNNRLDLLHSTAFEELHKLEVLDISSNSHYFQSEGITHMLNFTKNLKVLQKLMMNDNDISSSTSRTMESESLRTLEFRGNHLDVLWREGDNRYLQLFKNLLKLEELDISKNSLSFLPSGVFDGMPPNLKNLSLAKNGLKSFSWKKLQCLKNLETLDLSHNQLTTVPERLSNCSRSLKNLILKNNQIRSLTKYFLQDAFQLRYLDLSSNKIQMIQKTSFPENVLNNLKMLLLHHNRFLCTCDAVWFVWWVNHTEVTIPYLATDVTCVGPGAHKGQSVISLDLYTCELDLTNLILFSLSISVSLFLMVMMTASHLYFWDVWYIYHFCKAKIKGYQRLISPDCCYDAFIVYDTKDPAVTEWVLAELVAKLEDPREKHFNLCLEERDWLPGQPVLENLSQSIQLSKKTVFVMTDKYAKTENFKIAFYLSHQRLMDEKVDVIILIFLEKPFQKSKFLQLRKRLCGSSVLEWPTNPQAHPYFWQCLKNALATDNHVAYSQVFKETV
Description: TLR7 inhibition reporter assay (HEK-Blue, SEAP). Particulars: HEK-Blue cells overexpressing human TLR7, ligand gardiquimod 2.5 μM, 22 hour incubation. The procedure:
as §1, §2

The target in assay [3] is T3, human TLR8 (Homo sapiens, UniProt Q9NR97).
T3 construct: host or cells: HEK-Blue cells
T3 sequence (Q9NR97 27-1041): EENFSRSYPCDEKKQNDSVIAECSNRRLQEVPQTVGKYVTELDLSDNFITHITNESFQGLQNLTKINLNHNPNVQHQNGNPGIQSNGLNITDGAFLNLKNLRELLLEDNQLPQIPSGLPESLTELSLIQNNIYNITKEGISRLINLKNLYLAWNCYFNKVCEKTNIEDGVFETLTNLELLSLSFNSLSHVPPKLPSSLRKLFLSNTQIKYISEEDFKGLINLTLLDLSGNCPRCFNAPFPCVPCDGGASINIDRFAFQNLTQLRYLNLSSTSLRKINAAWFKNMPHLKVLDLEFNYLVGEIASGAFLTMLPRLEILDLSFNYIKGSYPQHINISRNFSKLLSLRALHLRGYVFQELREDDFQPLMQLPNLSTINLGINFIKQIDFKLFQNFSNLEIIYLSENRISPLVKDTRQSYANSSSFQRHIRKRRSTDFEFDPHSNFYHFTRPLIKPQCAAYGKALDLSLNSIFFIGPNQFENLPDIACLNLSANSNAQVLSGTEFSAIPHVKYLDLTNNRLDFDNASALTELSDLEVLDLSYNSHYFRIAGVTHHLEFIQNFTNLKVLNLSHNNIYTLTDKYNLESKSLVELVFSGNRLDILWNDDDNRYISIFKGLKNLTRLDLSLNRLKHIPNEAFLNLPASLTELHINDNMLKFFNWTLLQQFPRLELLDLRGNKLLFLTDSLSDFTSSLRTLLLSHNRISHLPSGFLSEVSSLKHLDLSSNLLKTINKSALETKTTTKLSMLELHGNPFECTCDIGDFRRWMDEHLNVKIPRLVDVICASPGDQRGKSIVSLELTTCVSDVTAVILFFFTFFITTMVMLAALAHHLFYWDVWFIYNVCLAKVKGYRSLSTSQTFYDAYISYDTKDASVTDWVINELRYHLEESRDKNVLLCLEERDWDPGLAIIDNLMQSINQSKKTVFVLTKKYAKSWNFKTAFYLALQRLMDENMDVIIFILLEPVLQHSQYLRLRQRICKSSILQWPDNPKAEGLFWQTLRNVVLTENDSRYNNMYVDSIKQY
Description: TLR8 inhibition reporter assay (HEK-Blue, SEAP). As to conditions: HEK-Blue cells overexpressing human TLR8, ligand R848 14.25 μM, 22 hour incubation. The procedure:
as §1, §2

One may read the IC50 as the midpoint of a concentration-inhibition curve. In the case of `Cc1cc(C2CCN(C3CC4CCC(C3)N4CC(C)C)CC2)nc2c1nc(-c1ccc(S(C)(=O)=O)cc1)n2C` (single isomer, unassigned) [Example 28, 5-(1-(8-isobutyl-8-azabicyclo[3.2.1]octan-3-yl)piperidin-4-yl)-3,7-dimethyl-2-(4-(methylsulfonyl)phenyl)-3H-imidazo[4,5-b]pyridine], the values for the IC50 in assay [1], in assay [2] and in assay [3] were 79 nM, 1400 nM and more than 50000 nM, respectively.

On to `CC(C)N1CCN(c2ccc(-c3ccc4nc(-c5ccc(S(C)(=O)=O)cc5)n(C)c4n3)cc2)CC1` [Example 53, 5-(4-(4-isopropylpiperazin-1-yl)phenyl)-3-methyl-2-(4-(methylsulfonyl)phenyl)-3H-imidazo[4,5-b]pyridine], for which the IC50 in assay [1] is 930 nM; in assay [2] it was more than 50000 nM; in assay [3], more than 50000 nM.

As for `COc1ccc(-c2nc3c(C)cc(C4CCN([C@H]5C[C@@H]6CN(CC(C)C)C[C@@H]6C5)CC4)nc3n2C)cc1OC` [Example 37, 2-(3,4-dimethoxyphenyl)-5-(1-(2-isobutyloctahydrocyclopenta[c]pyrrol-5-yl)piperidin-4-yl)-3,7-dimethyl-3H-imidazo[4,5-b]pyridine], the IC50 was 100 nM in assay [1], 1200 nM in assay [2] and more than 50000 nM in assay [3].

For `COc1ccc(-c2nc3ncc(-c4ccc(N5CCN(C(C)C)CC5)cc4)cc3n2C2CC2)cc1OC` [Example 50, 1-cyclopropyl-2-(3,4-dimethoxyphenyl)-6-(4-(4-isopropylpiperazin-1-yl)phenyl)-1H-imidazo[4,5-b]pyridine], the results for the IC50 in assay [1] and in assay [3] were 320 nM and 3400 nM, respectively.

Take `CS(=O)(=O)c1ccc(-c2nc3ccc(-c4ccc(N5CCN(CCCN6CCOCC6)CC5)cc4)nc3n2C2CC2)cc1` [Example 56, 4-(3-(4-(4-(3-cyclopropyl-2-(4-(methylsulfonyl)phenyl)-3H-imidazo[4,5-b]pyridin-5-yl)phenyl)piperazin-1-yl)propyl) morpholine]: the IC50 was 280 nM in assay [1] and more than 50000 nM in assay [2].

On to `COc1cc(-c2nc3c(C)cc(-c4ccc(N5CCN(C(C)C)CC5)cc4)nc3n2C)cn2ncnc12` [Example 45, 5-(4-(4-isopropylpiperazin-1-yl)phenyl)-2-(8-methoxy-[1,2,4]triazolo[1,5-a]pyridin-6-yl)-3,7-dimethyl-3H-imidazo[4,5-b]pyridine], for which the IC50 came to 140 nM in assay [1] and 5800 nM in assay [2].

Molecule `COc1ccc(-c2nc3ncc(C4CCN(C5CCN(CC(C)C)CC5)CC4)cc3[nH]2)cc1OC` [Example 12, 2-(3,4-dimethoxyphenyl)-6-(1′-isobutyl-[1,4′-bipiperidin]-4-yl)-1H-imidazo[4,5-b]pyridine] came in with an IC50 in assay [1] of 74 nM.

In assay [1], `Cc1cc(C2CCN(C3CC4CCC(C3)N4CC(C)C)CC2)nc2c1nc(-c1ccc(S(C)(=O)=O)cc1)n2C` (single isomer, unassigned) [Example 29, 5-(1-(8-isobutyl-8-azabicyclo[3.2.1]octan-3-yl)piperidin-4-yl)-3,7-dimethyl-2-(4-(methylsulfonyl)phenyl)-3H-imidazo[4,5-b]pyridine] returned an IC50 of 550 nM.

Turning to `Cc1cc(-c2ccc(CN3CC4(C3)CN(CC(C)C)C4)cc2)nc2c1nc(-c1ccc(S(C)(=O)=O)cc1)n2C1CC1` [Example 4, 3-cyclopropyl-5-(4-((6-isobutyl-2,6-diazaspiro[3.3]heptan-2-yl)methyl)phenyl)-7-methyl-2-(4-(methylsulfonyl)phenyl)-3H-imidazo[4,5-b]pyridine], the IC50 was 71 nM in assay [1] and 2600 nM in assay [2].

As to `Cc1cc(-c2ccc(CN3CC4(C3)CN(C3COC3)C4)cc2)nc2c1nc(-c1ccc(S(C)(=O)=O)cc1)n2C1CC1` [Example 6, 3-cyclopropyl-7-methyl-2-(4-(methylsulfonyl)phenyl)-5-(4-((6-(oxetan-3-yl)-2,6-diazaspiro[3.3]heptan-2-yl)methyl)phenyl)-3H-imidazo[4,5-b]pyridine], the IC50 came to 730 nM in assay [1] and 15000 nM in assay [2].

For the molecule `COc1ccc(-c2nc3c(C)cc(-c4ccc(N5CC6(C5)CN(C(C)C)C6)cc4)nc3n2C)cc1OC` [Example 59, 2-(3,4-dimethoxyphenyl)-5-(4-(6-isopropyl-2,6-diazaspiro[3.3]heptan-2-yl)phenyl)-3,7-dimethyl-3H-imidazo[4,5-b]pyridine], the IC50 in assay [1] amounted to 860 nM; in assay [2], 1100 nM.

Source of the values: US20250177363A1, “SUBSTITUTED IMIDAZOPYRIDINYL COMPOUNDS USEFUL AS INHIBITORS OF TLR9” (Bristol-Myers Squibb Company, priority 2022, published 2025).
